From ChEMBL document CHEMBL4138244, “Structure-based identification of a NEDD8-activating enzyme inhibitor via drug repurposing” (Eur J Med Chem, 2018)
Calls of active or inactive are those of the source. The calls are words filed in the database; no cut-off is given here.

Key:
[1] = target: T1, NEDD8 activating enzyme (Homo sapiens) (UniProt Q8TBC4+Q13564); experiment: Inhibition of NAE in human Caco2 cells assessed as increase in p53 protein levels at 1 to 10 uM after 16 hrs by Western blot analysis; assay type: cell-based
[2] = target: T1, NEDD8 activating enzyme (Homo sapiens); experiment: Inhibition of NAE-mediated Ubcl2-NEDD8 conjugation in human Caco2 cells at 10 uM after 16 hrs by Western blot analysis; assay type: cell-based
[3] = target: T1, NEDD8 activating enzyme (Homo sapiens); experiment: (§1) Inhibition of NAE-mediated Ubcl2-NEDD8 conjugation in human Caco2 cells after 16 hrs by Western blot analysis; assay type: cell-based
NEDD8 activating enzyme = target: T2, NEDD8 activating enzyme (Homo sapiens, UniProt Q8TBC4); experiment: as §1; assay type: cell-based
T2 sequence (Q8TBC4 whole entry): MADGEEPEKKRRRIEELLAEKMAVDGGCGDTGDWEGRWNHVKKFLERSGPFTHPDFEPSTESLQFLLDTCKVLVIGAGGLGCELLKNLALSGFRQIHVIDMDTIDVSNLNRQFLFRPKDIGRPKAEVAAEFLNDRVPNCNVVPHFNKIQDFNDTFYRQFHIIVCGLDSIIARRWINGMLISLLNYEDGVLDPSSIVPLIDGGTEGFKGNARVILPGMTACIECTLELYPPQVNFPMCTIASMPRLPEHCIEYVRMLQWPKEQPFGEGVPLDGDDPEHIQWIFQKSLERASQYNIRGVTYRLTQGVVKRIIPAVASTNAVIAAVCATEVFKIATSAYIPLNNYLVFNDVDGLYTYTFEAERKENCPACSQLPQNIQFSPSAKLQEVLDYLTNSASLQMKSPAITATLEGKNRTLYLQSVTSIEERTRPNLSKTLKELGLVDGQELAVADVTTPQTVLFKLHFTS
T2 sequence (Q13564 whole entry): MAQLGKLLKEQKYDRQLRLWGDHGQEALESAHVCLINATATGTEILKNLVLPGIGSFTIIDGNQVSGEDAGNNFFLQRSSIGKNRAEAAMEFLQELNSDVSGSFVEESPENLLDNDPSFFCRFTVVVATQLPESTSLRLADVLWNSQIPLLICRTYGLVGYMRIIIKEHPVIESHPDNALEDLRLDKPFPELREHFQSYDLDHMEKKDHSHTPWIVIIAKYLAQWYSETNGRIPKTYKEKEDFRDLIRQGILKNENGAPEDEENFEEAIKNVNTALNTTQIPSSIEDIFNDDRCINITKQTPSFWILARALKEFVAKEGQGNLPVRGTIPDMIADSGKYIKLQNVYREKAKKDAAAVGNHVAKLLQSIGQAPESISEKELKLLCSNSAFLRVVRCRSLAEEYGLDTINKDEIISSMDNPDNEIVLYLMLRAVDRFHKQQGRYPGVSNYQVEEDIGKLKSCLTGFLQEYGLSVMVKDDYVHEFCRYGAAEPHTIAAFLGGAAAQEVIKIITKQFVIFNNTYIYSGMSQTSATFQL

[4] = target: T1, NEDD8 activating enzyme (Homo sapiens); experiment: Inhibition of NAE (unknown origin) assessed as decrease in NAE-mediated Ubc12-NEDD8 conjugation levels preincubated for 10 mins followed by ATP and Mg2+ addition measured after 60 mins by Western blot analysis; assay type: protein-complex assay
[5] = target: T3, SUMO-activating enzyme (Homo sapiens) (UniProt Q9UBE0+Q9UBT2); experiment: Inhibition of SAE (unknown origin) assessed as decrease in SAE-mediated Ubc9-SUMO conjugation levels up to 10 uM preincubated for 10 mins followed by ATP and Mg2+ addition measured after 60 mins by Western blot analysis; assay type: protein-complex assay
[6] = target: T4, Ubiquitin-like modifier-activating enzyme 1 (Homo sapiens) (UniProt P22314); experiment: Inhibition of UAE1 (unknown origin) assessed as decrease in UAE1-mediated Ubc10-ubiquitin conjugation levels up to 10 uM preincubated for 10 mins followed by ATP and Mg2+ addition measured after 60 mins by Western blot analysis
T4 sequence (whole entry): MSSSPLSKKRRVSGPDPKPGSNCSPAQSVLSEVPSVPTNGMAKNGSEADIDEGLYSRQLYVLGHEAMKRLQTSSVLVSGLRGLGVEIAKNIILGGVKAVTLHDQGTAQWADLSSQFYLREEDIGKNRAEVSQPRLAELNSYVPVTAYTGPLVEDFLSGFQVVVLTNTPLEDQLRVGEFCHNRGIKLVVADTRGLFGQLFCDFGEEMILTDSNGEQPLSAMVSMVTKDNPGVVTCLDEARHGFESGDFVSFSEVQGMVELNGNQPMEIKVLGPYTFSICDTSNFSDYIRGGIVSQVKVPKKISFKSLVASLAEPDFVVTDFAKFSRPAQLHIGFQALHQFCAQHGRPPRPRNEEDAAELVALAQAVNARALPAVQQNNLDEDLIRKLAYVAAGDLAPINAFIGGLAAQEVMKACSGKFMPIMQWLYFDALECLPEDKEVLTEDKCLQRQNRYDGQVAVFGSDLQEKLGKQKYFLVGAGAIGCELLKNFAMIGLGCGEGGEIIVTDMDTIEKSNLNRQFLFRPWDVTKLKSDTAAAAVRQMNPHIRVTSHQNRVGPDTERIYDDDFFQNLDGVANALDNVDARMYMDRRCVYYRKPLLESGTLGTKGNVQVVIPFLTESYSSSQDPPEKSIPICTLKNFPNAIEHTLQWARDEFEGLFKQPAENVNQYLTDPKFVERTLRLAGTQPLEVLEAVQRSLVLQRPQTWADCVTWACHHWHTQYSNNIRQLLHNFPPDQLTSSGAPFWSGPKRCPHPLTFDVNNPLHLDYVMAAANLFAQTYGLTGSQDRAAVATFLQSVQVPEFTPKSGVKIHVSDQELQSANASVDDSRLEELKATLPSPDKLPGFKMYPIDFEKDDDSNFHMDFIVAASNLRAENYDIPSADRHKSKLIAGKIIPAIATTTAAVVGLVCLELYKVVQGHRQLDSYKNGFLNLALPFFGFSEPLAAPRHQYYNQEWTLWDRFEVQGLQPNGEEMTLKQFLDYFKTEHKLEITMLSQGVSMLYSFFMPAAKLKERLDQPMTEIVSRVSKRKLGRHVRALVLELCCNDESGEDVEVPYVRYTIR

[7] = target: T1, NEDD8 activating enzyme (Homo sapiens); experiment: Competitive inhibition of NAE (unknown origin) assessed as decrease in NAE-mediated Ubc12-NEDD8 conjugation levels at 10 uM preincubated for 10 mins followed by Mg2+ and various concentrations of ATP addition measured after 60 mins by Lineweaver-Burk plot analysis; assay type: protein-complex assay
[8] = target: T1, NEDD8 activating enzyme (Homo sapiens); experiment: Inhibition of NAE (unknown origin) assessed as decrease in NAE-mediated Ubc12-NEDD8 conjugation levels at 10 uM treated for 10 mins post ATP and Mg2+ addition measured after 60 mins by Western blot analysis; assay type: protein-complex assay
[9] = target: T1, NEDD8 activating enzyme (Homo sapiens); experiment: Inhibition of NAE in human Caco2 cells assessed as increase in p53 protein levels at 0.1 to 10 uM after 16 hrs by Western blot analysis; assay type: cell-based
Caco-2 [10] = experiment: Upregulation of p53 protein levels in NAE knockdown human Caco2 cells at 10 uM after 16 hrs by Western blot analysis; assay type: functional, cell-based
[11] = target: T1, NEDD8 activating enzyme (Homo sapiens); experiment: Inhibition of NAE in human Caco2 cells assessed as increase in p53 protein levels by measuring p53 degradation at 10 uM preincubated for 16 hrs followed by cycloheximide addition measured up to 60 mins by Western blot analysis relative to control; assay type: cell-based; design: scale not given: the % may be the effect or the level left
[12] = target: T1, NEDD8 activating enzyme (Homo sapiens); experiment: Inhibition of NAE in human Caco2 cells harboring p53-luc plasmid assessed as increase in p53 transcriptional activity after 16 hrs by luciferase reporter gene assay; assay type: cell-based
[13] = target: T1, NEDD8 activating enzyme (Homo sapiens); experiment: Inhibition of NAE in human Caco2 cells assessed as increase in beta-catenin protein levels after 16 hrs by Western blot analysis; assay type: cell-based
[14] = target: T1, NEDD8 activating enzyme (Homo sapiens); experiment: Inhibition of NAE in human Caco2 cells assessed as increase in c-myc protein levels after 16 hrs by Western blot analysis; assay type: cell-based
[15] = target: T1, NEDD8 activating enzyme (Homo sapiens); experiment: Inhibition of NAE in human Caco2 cells assessed as increase in p27 protein levels at 0.1 to 10 uM after 16 hrs by Western blot analysis; assay type: cell-based
[16] = target: T1, NEDD8 activating enzyme (Homo sapiens); experiment: Inhibition of NAE in human Caco2 cells assessed as decrease in cyclin D1 protein levels at 0.1 to 10 uM after 16 hrs by Western blot analysis; assay type: cell-based
[17] = target: T1, NEDD8 activating enzyme (Homo sapiens); experiment: Inhibition of NAE in human Caco2 cells assessed as decrease in Bcl2 protein levels at 0.1 to 10 uM after 16 hrs by Western blot analysis; assay type: cell-based
[18] = target: T1, NEDD8 activating enzyme (Homo sapiens); experiment: Inhibition of NAE in human Caco2 cells assessed as increase in phosphorylated NF-kappaB protein levels at 0.1 to 10 uM after 16 hrs by Western blot analysis; assay type: cell-based
Caco-2 [19] = experiment: Induction of apoptosis in human Caco2 cells assessed as viable cells at 1 uM after 16 hrs by Annexin V-FITC/propidium iodide staining-based flow cytometric analysis (reference value: 98.4%); assay type: functional; conditions: Caco-2, 16 h, read-out: Activity
Caco-2 [20] = experiment: Induction of apoptosis in human Caco2 cells assessed as early apoptotic cells at 1 uM after 16 hrs by Annexin V-FITC/propidium iodide staining-based flow cytometric analysis (reference value: 1.40%); assay type: functional
Caco-2 [21] = experiment: Induction of apoptosis in human Caco2 cells assessed as late apoptotic cells at 1 uM after 16 hrs by Annexin V-FITC/propidium iodide staining-based flow cytometric analysis (reference value: 0.072%); assay type: functional
Caco-2 [22] = experiment: Induction of apoptosis in human Caco2 cells assessed as necrotic cells at 1 uM after 16 hrs by Annexin V-FITC/propidium iodide staining-based flow cytometric analysis (reference value: 0.12%); assay type: functional
Caco-2 [23] = experiment: Induction of apoptosis in human Caco2 cells assessed as viable cells at 5 uM after 16 hrs by Annexin V-FITC/propidium iodide staining-based flow cytometric analysis (reference value: 98.4%); assay type: functional; conditions: Caco-2, 16 h, read-out: Activity
Caco-2 [24] = experiment: Induction of apoptosis in human Caco2 cells assessed as early apoptotic cells at 5 uM after 16 hrs by Annexin V-FITC/propidium iodide staining-based flow cytometric analysis (reference value: 1.40%); assay type: functional
Caco-2 [25] = experiment: Induction of apoptosis in human Caco2 cells assessed as late apoptotic cells at 5 uM after 16 hrs by Annexin V-FITC/propidium iodide staining-based flow cytometric analysis (reference value: 0.072%); assay type: functional
Caco-2 [26] = experiment: Induction of apoptosis in human Caco2 cells assessed as necrotic cells at 5 uM after 16 hrs by Annexin V-FITC/propidium iodide staining-based flow cytometric analysis (reference value: 0.12%); assay type: functional
Caco-2 [27] = experiment: Induction of apoptosis in human Caco2 cells assessed as viable cells at 10 uM after 16 hrs by Annexin V-FITC/propidium iodide staining-based flow cytometric analysis (reference value: 98.4%); assay type: functional; conditions: Caco-2, 16 h, read-out: Activity
Caco-2 [28] = experiment: Induction of apoptosis in human Caco2 cells assessed as early apoptotic cells at 10 uM after 16 hrs by Annexin V-FITC/propidium iodide staining-based flow cytometric analysis (reference value: 1.40%); assay type: functional
Caco-2 [29] = experiment: Induction of apoptosis in human Caco2 cells assessed as late apoptotic cells at 10 uM after 16 hrs by Annexin V-FITC/propidium iodide staining-based flow cytometric analysis (reference value: 0.072%); assay type: functional
Caco-2 [30] = experiment: Induction of apoptosis in human Caco2 cells assessed as necrotic cells at 10 uM after 16 hrs by Annexin V-FITC/propidium iodide staining-based flow cytometric analysis (reference value: 0.12%); assay type: functional
Caco-2 [31] = experiment: Cytotoxicity against human Caco2 cells after 72 hrs by MTT assay; assay type: functional, cell-based; conditions: Caco-2, 72 h
Caco-2 [32] = experiment: Cytotoxicity against NAE-knockdown human Caco2 cells after 72 hrs by MTT assay; assay type: cell-based; conditions: Caco-2, 72 h
[33] = target: T3, SUMO-activating enzyme (Homo sapiens); experiment: Inhibition of SAE-mediated Ubc9-SUMO conjugation in human Caco2 cells up to 10 uM preincubated for 10 mins followed by ATP and Mg2+ addition measured after 60 mins by Western blot analysis; assay type: cell-based
[34] = target: T4, Ubiquitin-like modifier-activating enzyme 1 (Homo sapiens); experiment: Inhibition of UAE1-mediated Ubc10-ubiquitin conjugation in human Caco2 cells up to 10 uM preincubated for 10 mins followed by ATP and Mg2+ addition measured after 60 mins by Western blot analysis; assay type: cell-based

## COc1cc([C@@H]2c3cc4c(cc3[C@H](O)[C@H]3COC(=O)[C@H]23)OCO4)cc(OC)c1OC
[1]
  inhibition: Active

## O=C1c2c(O)ccc(O)c2C(=O)c2c(NCCNCCO)ccc(NCCNCCO)c21 [MITOXANTRONE]
[2]
  inhibition: Active
[3]
  inhibition: Dose-dependent effect
NEDD8 activating enzyme
  EC50: 1300 nM
[4]
  inhibition: Dose-dependent effect
[5]
  inhibition: inactive
[6]
  inhibition: inactive
[7]
  inhibition: Active
[8]
  inhibition: inactive
[9]
  inhibition: Active
Caco-2 [10]
  Activity: Active
[1]
  inhibition: Active
[11]
  Activity: 15%
[12]
  inhibition: Dose-dependent effect
[13]
  inhibition: Dose-dependent effect
[14]
  inhibition: Dose-dependent effect
[15]
  inhibition: Active
[16]
  inhibition: Active
[17]
  inhibition: Active
[18]
  inhibition: Active
Caco-2 [19]
  viability at 1 µM: 36%
Caco-2 [20]
  Activity: 42%
Caco-2 [21]
  Activity: 19.4%
Caco-2 [22]
  Activity: 2.49%
Caco-2 [23]
  viability at 5 µM: 15.4%
Caco-2 [24]
  Activity: 27.8%
Caco-2 [25]
  Activity: 50.7%
Caco-2 [26]
  Activity: 6.07%
Caco-2 [27]
  viability at 10 µM: 3.34%
Caco-2 [28]
  Activity: 0.91%
Caco-2 [29]
  Activity: 22.1%
Caco-2 [30]
  Activity: 73.6%
Caco-2 [31]
  IC50: 1400 nM
Caco-2 [32]
  IC50: > 10000 nM
[33]
  inhibition: inactive
[34]
  inhibition: inactive

## NS(=O)(=O)OC[C@@H]1C[C@@H](n2ccc3c(N[C@H]4CCc5ccccc54)ncnc32)C[C@@H]1O [PEVONEDISTAT]
[3]
  inhibition: Dose-dependent effect
[7]
  inhibition: Active
Caco-2 [27]
  viability at 10 µM: 46.6%
Caco-2 [28]
  Activity: 32.8%
Caco-2 [29]
  Activity: 14.3%
Caco-2 [30]
  Activity: 6.27%
Caco-2 [31]
  IC50: 4400 nM
